From patent publication US20230058961A1, “SUBSTITUTED HETEROCYCLICS WITH THERAPEUTIC ACTIVITY IN HIV” (New York Blood Center, Inc., priority 2019, published 2023) come the findings set out here.

One data set concerns pseudovirus HIV-1 HXB2. The data set can be described thus: organism not typed. The format is cell-based. Conditions: anti-HIV-1 activity, single-cycle assay, TZM-bl cells, pseudovirus HIV-1 HXB2, read-out: IC50.
A further data set has as its system TZM-bl cells. Conditions: human, 3 days.
Another data set can be described thus: in vitro. The settings on record: human.
The mark [1] stands for this setting: Human immunodeficiency virus 1, HXB2, TZM-bl.

For orientation: IC50 means the point on the concentration scale where inhibition reaches its midpoint.

In the case of `Cc1cc(-c2ccc(C(F)(F)F)cn2)[nH]c1C(=O)NC(CN)c1cnc(CO)s1` (centres unmarked) [Compound 62, N-(2-Amino-1-(2-(hydroxymethyl)thiazol-5-yl)ethyl)-3-methyl-5-(5-(trifluoromethyl)pyridin-2-yl)-1H-pyrrole-2-carboxamide], the IC50 with pseudovirus HIV-1 HXB2 is 1.9 ± 0.25 µM. The compound also showed a CC50 in the data set on TZM-bl cells of 63.8 ± 2.1 µM.
On to `NCC(NC(=O)c1ccc(-c2ccc(C(F)(F)F)cn2)[nH]1)c1cnc(CO)s1` (centres unmarked) [Compound 58, N-(2-Amino-1-(2-(hydroxymethyl)thiazol-5-yl)ethyl)-5-(5-(trifluoromethyl)pyridin-2-yl)-1H-pyrrole-2-carboxamide], for which the IC50 in the data set on pseudovirus HIV-1 HXB2 amounted to 2.1 ± 0.2 µM. Moreover, the CC50 in the data set with TZM-bl cells is > 122 µM.
For `NCC(NC(=O)c1ccc(-c2ccc(Cl)cn2)[nH]1)c1nc(CO)cs1` (centres unmarked) [Compound 16, N-(2-Amino-1-(4-(hydroxymethyl)thiazol-2-yl)ethyl)-5-(5-chloropyridin-2-yl)-1H-pyrrole-2-carboxamide], in that order: 1.7 ± 0.3 µM and > 132 µM.
For `Cc1cc(-c2ccc(C(F)(F)F)cn2)[nH]c1C(=O)NC(CN)c1csc(CO)n1` (centres unmarked) [Compound 64, N-(2-Amino-1-(2-(hydroxymethyl)thiazol-4-yl)ethyl)-3-methyl-5-(5-(trifluoromethyl)pyridin-2-yl)-1H-pyrrole-2-carboxamide], in the data set on pseudovirus HIV-1 HXB2, the IC50 came to 1.3 ± 0.2 µM. The CC50 in the data set on TZM-bl cells stood at 47.8 ± 5.9 µM.
As to `CC(C)(N)C(NC(=O)c1ccc(-c2ccc(C(F)(F)F)cn2)[nH]1)c1nc(CO)cs1` (centres unmarked) [Compound 24, N-(2-Amino-1-(4-(hydroxymethyl)thiazol-2-yl)-2-methylpropyl)-5-(5-(trifluoromethyl)pyridin-2-yl)-1H-pyrrole-2-carboxamide], in the data set on pseudovirus HIV-1 HXB2, the IC50 turned out to be 0.58 µM. In the data set on TZM-bl cells, this compound gave a CC50 of 59 ± 10 µM.
In the data set with TZM-bl cells, `Cc1cc(-c2ccc(C(F)(F)F)cn2)[nH]c1C(=O)NC(c1ncc(CO)s1)C(C)(C)N` (centres unmarked) [Compound 12, N-(2-Amino-1-(5-(hydroxymethyl)thiazol-2-yl)-2-methylpropyl)-3-methyl-5-(5-(trifluoro-methyl)pyridin-2-yl)-1H-pyrrole-2-carboxamide] showed a CC50 of 37.5 ± 2.2 µM.
As to `NCC(NC(=O)c1ccc(-c2ccc(F)cn2)[nH]1)c1nc(CO)cs1` (centres unmarked) [Compound 18, N-(2-Amino-1-(4-(hydroxymethyl)thiazol-2-yl)ethyl)-5-(5-fluoropyridin-2-yl)-1H-pyrrole-2-carboxamide], the IC50 with pseudovirus HIV-1 HXB2 is > 11 µM. Besides, in the data set on TZM-bl cells, the CC50 is > 138 µM.
On to `NCC(NC(=O)c1ccc(-c2ccc(C(F)(F)F)cn2)[nH]1)c1nc(CO)cs1` (centres unmarked) [Compound 22, N-(2-Amino-1-(4-(hydroxymethyl)thiazol-2-yl)ethyl)-5-(5-(trifluoromethyl)pyridin-2-yl)-1H-pyrrole-2-carboxamide], for which, in the data set with TZM-bl cells, the CC50 was determined as 124 ± 7 µM.
Turning to `NCC(NC(=O)c1ccc(-c2ccc(C(F)(F)F)nc2)[nH]1)c1nc(CO)cs1` (centres unmarked) [Compound 41, N-(2-Amino-1-(4-(hydroxymethyl)thiazol-2-yl)ethyl)-5-(6-(trifluoromethyl)pyridin-3-yl)-1H-pyrrole-2-carboxamide], the IC50 was > 10 µM in the data set with pseudovirus HIV-1 HXB2 (setting [1]) and 12.7 ± 2.8 µM in the data set on pseudovirus HIV-1 HXB2. Besides, the CC50 at 3 days in the data set “in vitro” (CC50) was > 122 µM; in the data set “in vitro” (CC50, cytotoxicity, TZM-bl cells, MTS, 3 days), > 100 µM.
`NCC(NC(=O)c1ccc(-c2ccc(C(F)(F)F)cn2)[nH]1)c1csc(CO)n1` (centres unmarked) [Compound 65, N-(2-Amino-1-(2-(hydroxymethyl)thiazol-4-yl)ethyl)-5-(5-(trifluoromethyl)pyridin-2-yl)-1H-pyrrole-2-carboxamide]: the IC50 with pseudovirus HIV-1 HXB2 (setting [1]) came to 1.6 ± 0.2 µM. The compound also showed a CC50 at 3 days in the data set “in vitro” (CC50) of 84.3 ± 1.4 µM.
With `NCC(NC(=O)c1ccc(-c2ccc(C(F)(F)F)cn2)[nH]1)c1ncc(CO)s1` (centres unmarked) [Compound 5, N-(2-Amino-1-(5-(hydroxymethyl)thiazol-2-yl)ethyl)-5-(5-(trifluoromethyl)pyridin-2-yl)-1H-pyrrole-2-carboxamide], the figures for the IC50 in the data set with pseudovirus HIV-1 HXB2 (setting [1]) and with pseudovirus HIV-1 HXB2 were < 1 µM and 0.96 µM, respectively. In addition, in “in vitro” (CC50), the CC50 at 3 days is > 122 µM.
